The results in this text go back to patent publication US7538111B2, “Benzenesulphonamide derivatives, method for production and use thereof for treatment of pain” (Laboratoires Fournier S.A., priority 2003, dated 2009).

In this assay the test system is formalin-induced pain response (paw licking). The assay is described as follows: formalin-induced pain response test in mice. Format: in vivo. The settings on record: oral route, dose 1 mg/kg, 2nd phase 15 to 30 min after formalin injection. The method, then:
The compounds of the present invention were evaluated for their analgesic property using the formalin-induced pain response test in mice (Shibata, M., Ohkubo, T., Takahashi, H. & R. Inoki. Modified formalin test: characteristic biphasic pain response. Pain, 38, 347-352). To summarize, formalin (0.92% in physiological saline) is injected into the hind paw and the period of paw licking, which represents pain intensity, is recorded from 0 to 5 min (1st phase) and from 15 to 30 min (2nd phase) after the injection.

Structures are written as SMILES. Counter-ions that a name gives are not always drawn.

As to `COc1cc(C)c(S(=O)(=O)N(C)CCOCC(=O)N2CCN([C@@H]3CN4CCC3CC4)CC2)c(C)c1` [Example 6, N-[2-[2-[4-[(3S)-1-azabicyclo[2.2.2]oct-3-yl]-1-piperazinyl]-2-oxo-ethoxy]ethyl]-4-methoxy-N,2,6-trimethylbenzenesulphonamide, fumarate], the “percentage inhibition of the second paw licking phase induced by formalin” value stood at 40%.
